Patent US12150998B2, “Bicyclic peptide ligands specific for P-selectin” (BicycleTx Limited, priority 2021, dated 2024)
Where two headings read alike, the source gives them in different places. Starred links: 1 amine or outer side, 2 acyl side, 3 side chain; linkers in the order of their positions; H or OH if unused. Positions of bridges follow the written chain, without caps; N, C: chain ends. Chains are numbered I, II in the order given. X3 = O=C(CCOCCN(CCOCCC(=O)NCCOCCOCCOCCOCCOCCOCCOCCOCCOCCOCCOCCOCCOCCOCCOCCOCCOCCOCCOCCOCCOCCOCCOCCn1cc(CCC(=O)[*:2])nn1)CCOCCC(=O)NCCOCCOCCOCCOCCOCCOCCOCCOCCOCCOCCOCCOCCOCCOCCOCCOCCOCCOCCOCCOCCOCCOCCOCCn1cc(CCC(=O)[*:3])nn1)NCCOCCOCCOCCOCCOCCOCCOCCOCCOCCOCCOCCOCCOCCOCCOCCOCCOCCOCCOCCOCCOCCOCCOCCn1cc(CCC(=O)[*:1])nn1; X4 = O=C(CCOCCN(CCOCCC(=O)NCCOCCOCCOCCOCCOCCOCCOCCOCCOCCOCCn1cc(CCC(=O)[*:2])nn1)CCOCCC(=O)NCCOCCOCCOCCOCCOCCOCCOCCOCCOCCOCCn1cc(CCC(=O)[*:3])nn1)NCCOCCOCCOCCOCCOCCOCCOCCOCCOCCOCCn1cc(CCC(=O)[*:1])nn1; TATA = O=C(CC[*:1])N1CN(C(=O)CC[*:2])CN(C(=O)CC[*:3])C1

Molecular target: T1, human P-Selectin protein (Homo sapiens, UniProt P16109)
T1 sequence (P16109 42-830): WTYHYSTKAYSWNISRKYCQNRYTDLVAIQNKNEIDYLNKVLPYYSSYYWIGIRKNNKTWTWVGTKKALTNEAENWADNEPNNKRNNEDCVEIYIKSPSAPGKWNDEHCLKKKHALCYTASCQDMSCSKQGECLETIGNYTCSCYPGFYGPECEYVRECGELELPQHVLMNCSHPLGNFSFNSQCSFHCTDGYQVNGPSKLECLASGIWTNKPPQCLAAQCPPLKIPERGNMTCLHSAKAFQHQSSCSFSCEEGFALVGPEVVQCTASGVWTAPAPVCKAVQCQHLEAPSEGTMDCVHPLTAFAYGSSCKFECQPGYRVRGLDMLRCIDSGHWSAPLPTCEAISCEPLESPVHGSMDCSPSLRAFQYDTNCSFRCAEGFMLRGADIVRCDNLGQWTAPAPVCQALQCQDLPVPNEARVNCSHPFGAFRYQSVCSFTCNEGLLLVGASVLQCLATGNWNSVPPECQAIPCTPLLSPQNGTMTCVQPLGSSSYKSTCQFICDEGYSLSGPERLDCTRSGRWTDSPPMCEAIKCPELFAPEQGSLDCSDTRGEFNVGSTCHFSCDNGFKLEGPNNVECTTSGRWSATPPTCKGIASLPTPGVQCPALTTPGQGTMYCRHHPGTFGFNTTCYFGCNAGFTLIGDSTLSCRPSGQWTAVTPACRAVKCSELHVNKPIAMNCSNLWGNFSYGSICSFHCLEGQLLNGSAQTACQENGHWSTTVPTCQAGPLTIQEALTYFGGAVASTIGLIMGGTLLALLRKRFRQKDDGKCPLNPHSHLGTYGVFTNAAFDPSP
Assay: SPR binding assay (Biacore)
Conditions: recombinant biotinylated human P-Selectin, 25° C.
Method: Biacore experiments were performed to determine ka (M−1s−1), kd (s−1), KD (nM) values of monomeric peptides binding to human Selectin proteins. Recombinant biotinylated human P-Selectin protein was used. For analysis of binding, either a Biacore 3000 or 5200 instrument was used with a CMS sensor chip (GE Healthcare). For sensor chip surface preparation, streptavidin was immobilized on the chip using standard amine-coupling chemistry at 25° C. with HBS-N (10 mM HEPES, 0.15 M NaCl, pH 7.4) as the running buffer. The carboxymethyl dextran surface was activated with a 12 min injection of a 1:1 ratio of 0.4 M 1-ethyl-3-(3-dim ethyl aminopropyl) carbodiimide hydrochloride (EDC)/0.1 M N-hydroxy succinimide (NHS) at a flow rate of 10 μl/min. For capture of streptavidin, protein was diluted to 0.2 mg/ml in 10 mM sodium acetate (pH 4.5) and captured by injecting 70 μl onto the activated chip surface. Residual activated groups were blocked with a 7 min injection of 1 M ethanolamine (pH 8.5). Biotinylated protein stock was diluted 1:100 in HBS-N and captured on one flow cell at 5 μl/min to a level of 1000-1500 RU. Buffer was changed to PBS/0.05% Tween 20 and a dilution series of the peptides was prepared in this buffer with a final DMSO concentration of 0.5%. The top concentration of the analyte varied from 200 nM to 50 μM; depending on predicted affinity of the interaction. In all cases a titration was performed with either seven 2-fold dilutions or five 3-fold dilutions. The SPR analysis was run at 25° C. with a flow rate of 50-80 μl/min with 60 seconds association and a suitable disassociation period (100-900 seconds). Data were corrected for DMSO excluded volume effects. All data were double-referenced for blank injections and reference surface using standard processing procedures and data processing and kinetic fitting were performed using Scrubber software, version 2.0c (BioLogic Software). Data were fitted using mass transport model allowing for mass transport effects where appropriate.

[1] = read-out: Affinity KD determined by SPR

## CSCC[C@@H]1NC(=O)[C@H](Cc2ccc(O)cc2)NC(=O)[C@@H](NC(=O)[C@H](C)NC(C)=O)CSCCC(=O)N2CN3CN(C2)C(=O)CCSC[C@H](NC(=O)[C@H](Cc2c[nH]c4ccccc24)NC(=O)[C@H](CCC(=O)O)NC1=O)C(=O)N[C@@H](CC(=O)O)C(=O)N[C@@H](C(C)C)C(=O)N[C@@H]([C@@H](C)O)C(=O)N[C@@H](CC(=O)O)C(=O)N[C@@H](Cc1ccc(O)cc1)C(=O)NCC(=O)N[C@H](C(=O)N[C@@H](CCCCNC(=O)CCc1cn(CCOCCOCCOCCOCCOCCOCCOCCOCCOCCOCCNC(=O)CCOCC(COCCC(=O)NCCOCCOCCOCCOCCOCCOCCOCCOCCOCCOCCn2cc(CCC(=O)NCCCC[C@H](NC(=O)[C@@H]4CSCCC(=O)N5CN6CN(C5)C(=O)CCSC[C@H](NC(=O)[C@H](Cc5c[nH]c7ccccc57)NC(=O)[C@H](CCC(=O)O)NC(=O)[C@H](CCSC)NC(=O)[C@H](Cc5ccc(O)cc5)NC(=O)[C@@H](NC(=O)[C@H](C)NC(C)=O)CSCCC6=O)C(=O)N[C@@H](CC(=O)O)C(=O)N[C@@H](C(C)C)C(=O)N[C@@H]([C@@H](C)O)C(=O)N[C@@H](CC(=O)O)C(=O)N[C@@H](Cc5ccc(O)cc5)C(=O)NCC(=O)N4)C(N)=O)nn2)(COCCC(=O)NCCOCCOCCOCCOCCOCCOCCOCCOCCOCCOCCn2cc(CCC(=O)NCCCC[C@H](NC(=O)[C@@H]4CSCCC(=O)N5CN6CN(C5)C(=O)CCSC[C@H](NC(=O)[C@H](Cc5c[nH]c7ccccc57)NC(=O)[C@H](CCC(=O)O)NC(=O)[C@H](CCSC)NC(=O)[C@H](Cc5ccc(O)cc5)NC(=O)[C@@H](NC(=O)[C@H](C)NC(C)=O)CSCCC6=O)C(=O)N[C@@H](CC(=O)O)C(=O)N[C@@H](C(C)C)C(=O)N[C@@H]([C@@H](C)O)C(=O)N[C@@H](CC(=O)O)C(=O)N[C@@H](Cc5ccc(O)cc5)C(=O)NCC(=O)N4)C(N)=O)nn2)COCCC(=O)NCCOCCOCCOCCOCCOCCOCCOCCOCCOCCOCCn2cc(CCC(=O)NCCCC[C@H](NC(=O)[C@@H]4CSCCC(=O)N5CN6CN(C5)C(=O)CCSC[C@H](NC(=O)[C@H](Cc5c[nH]c7ccccc57)NC(=O)[C@H](CCC(=O)O)NC(=O)[C@H](CCSC)NC(=O)[C@H](Cc5ccc(O)cc5)NC(=O)[C@@H](NC(=O)[C@H](C)NC(C)=O)CSCCC6=O)C(=O)N[C@@H](CC(=O)O)C(=O)N[C@@H](C(C)C)C(=O)N[C@@H]([C@@H](C)O)C(=O)N[C@@H](CC(=O)O)C(=O)N[C@@H](Cc5ccc(O)cc5)C(=O)NCC(=O)N4)C(N)=O)nn2)nn1)C(N)=O)CSCCC3=O [BCY5464]
Affinity KD determined by SPR
  Kd: 0.0373 µM

## I: Ac-ACYMEWCDVTDYGCK-NH2 / II: Ac-ACYMEWCDVTDYGCK-NH2 / III: Ac-ACYMEWCDVTDYGCK-NH2 (linker I:2-I:7-I:14, II:2-II:7-II:14, III:2-III:7-III:14 via TATA; linker I:15-II:15-III:15 via X3) [BCY5461]
Affinity KD determined by SPR
  Kd: 0.23 µM

## CSCC[C@@H]1NC(=O)[C@H](Cc2ccc(O)cc2)NC(=O)[C@@H](NC(=O)[C@H](C)NC(=O)CCc2cn(CCOCCOCCOCCOCCOCCOCCOCCOCCOCCOCCNC(=O)CCOCCN(CCOCCC(=O)NCCOCCOCCOCCOCCOCCOCCOCCOCCOCCOCCn3cc(CCC(=O)N[C@@H](C)C(=O)N[C@H]4CSCCC(=O)N5CN6CN(C5)C(=O)CCSC[C@H](NC(=O)[C@H](Cc5c[nH]c7ccccc57)NC(=O)[C@H](CCC(=O)O)NC(=O)[C@H](CCSC)NC(=O)[C@H](Cc5ccc(O)cc5)NC4=O)C(=O)N[C@@H](CC(=O)O)C(=O)N[C@@H](C(C)C)C(=O)N[C@@H]([C@@H](C)O)C(=O)N[C@@H](CC(=O)O)C(=O)N[C@@H](Cc4ccc(O)cc4)C(=O)NCC(=O)N[C@H](C(=O)N[C@@H](C)C(N)=O)CSCCC6=O)nn3)CCOCCC(=O)NCCOCCOCCOCCOCCOCCOCCOCCOCCOCCOCCn3cc(CCC(=O)N[C@@H](C)C(=O)N[C@H]4CSCCC(=O)N5CN6CN(C5)C(=O)CCSC[C@H](NC(=O)[C@H](Cc5c[nH]c7ccccc57)NC(=O)[C@H](CCC(=O)O)NC(=O)[C@H](CCSC)NC(=O)[C@H](Cc5ccc(O)cc5)NC4=O)C(=O)N[C@@H](CC(=O)O)C(=O)N[C@@H](C(C)C)C(=O)N[C@@H]([C@@H](C)O)C(=O)N[C@@H](CC(=O)O)C(=O)N[C@@H](Cc4ccc(O)cc4)C(=O)NCC(=O)N[C@H](C(=O)N[C@@H](C)C(N)=O)CSCCC6=O)nn3)nn2)CSCCC(=O)N2CN3CN(C2)C(=O)CCSC[C@H](NC(=O)[C@H](Cc2c[nH]c4ccccc24)NC(=O)[C@H](CCC(=O)O)NC1=O)C(=O)N[C@@H](CC(=O)O)C(=O)N[C@@H](C(C)C)C(=O)N[C@@H]([C@@H](C)O)C(=O)N[C@@H](CC(=O)O)C(=O)N[C@@H](Cc1ccc(O)cc1)C(=O)NCC(=O)N[C@H](C(=O)N[C@@H](C)C(N)=O)CSCCC3=O [BCY5458]
[1]
  Kd: 0.4 µM

## I: Ac-ACYMEWCDVTDYGCK-NH2 / II: Ac-ACYMEWCDVTDYGCK-NH2 / III: Ac-ACYMEWCDVTDYGCK-NH2 (linker I:2-I:7-I:14, II:2-II:7-II:14, III:2-III:7-III:14 via TATA; linker I:15-II:15-III:15 via X4) [BCY5460]
[1]
  Kd: 0.239 µM

## CSCC[C@@H]1NC(=O)[C@H](Cc2ccc(O)cc2)NC(=O)[C@@H](NC(=O)[C@H](C)NC(C)=O)CSCCC(=O)N2CN3CN(C2)C(=O)CCSC[C@H](NC(=O)[C@H](Cc2c[nH]c4ccccc24)NC(=O)[C@H](CCC(=O)O)NC1=O)C(=O)N[C@@H](CC(=O)O)C(=O)N[C@@H](C(C)C)C(=O)N[C@@H]([C@@H](C)O)C(=O)N[C@@H](CC(=O)O)C(=O)N[C@@H](Cc1ccc(O)cc1)C(=O)NCC(=O)N[C@H](C(=O)N[C@@H](CCCCNC(=O)CCc1cn(CCOCCOCCOCCOCCOCCOCCOCCOCCOCCOCCOCCOCCOCCOCCOCCOCCOCCOCCOCCOCCOCCOCCOCCNC(=O)CCOCC(COCCC(=O)NCCOCCOCCOCCOCCOCCOCCOCCOCCOCCOCCOCCOCCOCCOCCOCCOCCOCCOCCOCCOCCOCCOCCOCCn2cc(CCC(=O)NCCCC[C@H](NC(=O)[C@@H]4CSCCC(=O)N5CN6CN(C5)C(=O)CCSC[C@H](NC(=O)[C@H](Cc5c[nH]c7ccccc57)NC(=O)[C@H](CCC(=O)O)NC(=O)[C@H](CCSC)NC(=O)[C@H](Cc5ccc(O)cc5)NC(=O)[C@@H](NC(=O)[C@H](C)NC(C)=O)CSCCC6=O)C(=O)N[C@@H](CC(=O)O)C(=O)N[C@@H](C(C)C)C(=O)N[C@@H]([C@@H](C)O)C(=O)N[C@@H](CC(=O)O)C(=O)N[C@@H](Cc5ccc(O)cc5)C(=O)NCC(=O)N4)C(N)=O)nn2)(COCCC(=O)NCCOCCOCCOCCOCCOCCOCCOCCOCCOCCOCCOCCOCCOCCOCCOCCOCCOCCOCCOCCOCCOCCOCCOCCn2cc(CCC(=O)NCCCC[C@H](NC(=O)[C@@H]4CSCCC(=O)N5CN6CN(C5)C(=O)CCSC[C@H](NC(=O)[C@H](Cc5c[nH]c7ccccc57)NC(=O)[C@H](CCC(=O)O)NC(=O)[C@H](CCSC)NC(=O)[C@H](Cc5ccc(O)cc5)NC(=O)[C@@H](NC(=O)[C@H](C)NC(C)=O)CSCCC6=O)C(=O)N[C@@H](CC(=O)O)C(=O)N[C@@H](C(C)C)C(=O)N[C@@H]([C@@H](C)O)C(=O)N[C@@H](CC(=O)O)C(=O)N[C@@H](Cc5ccc(O)cc5)C(=O)NCC(=O)N4)C(N)=O)nn2)COCCC(=O)NCCOCCOCCOCCOCCOCCOCCOCCOCCOCCOCCOCCOCCOCCOCCOCCOCCOCCOCCOCCOCCOCCOCCOCCn2cc(CCC(=O)NCCCC[C@H](NC(=O)[C@@H]4CSCCC(=O)N5CN6CN(C5)C(=O)CCSC[C@H](NC(=O)[C@H](Cc5c[nH]c7ccccc57)NC(=O)[C@H](CCC(=O)O)NC(=O)[C@H](CCSC)NC(=O)[C@H](Cc5ccc(O)cc5)NC(=O)[C@@H](NC(=O)[C@H](C)NC(C)=O)CSCCC6=O)C(=O)N[C@@H](CC(=O)O)C(=O)N[C@@H](C(C)C)C(=O)N[C@@H]([C@@H](C)O)C(=O)N[C@@H](CC(=O)O)C(=O)N[C@@H](Cc5ccc(O)cc5)C(=O)NCC(=O)N4)C(N)=O)nn2)nn1)C(N)=O)CSCCC3=O [BCY5465]
Affinity KD determined by SPR
  Kd: 0.14 µM
